Laboratory results published in US5473074A, “Adenosine diphosphoribose polymerase binding nitroso aromatic compounds useful as retroviral inactivating agents, anti-retroviral agents and anti-tumor agents-54” (priority 1992, dated 1995).
pIC50: −log10 of the molar value.

Key:
cells / HIV = assay: Anti-tumor / anti-HIV (biological) action, general statement
HIV-1 = assay: Anti-HIV action on stimulated human lymphoblasts, virus titer; type: cell-based; settings: 10 μM; 30 min exposure; virus alone 5.25
Description: VIII. Anti-HIV action of NOBP, NOBA and NOQ on stimulated human lymphoblasts
Exposure to the two drugs was only for 30 minutes at the commencement of viral infection, and drugs were never re-added. The results given in Table III provide the ID50 of HIV titer 10 days after infection of cell cultures with HIV.

[1] = target: Zn(HIV1-F1), N-terminal CCHC zinc finger of the HIV-1 NC protein (Human immunodeficiency virus type 1 lw12.3 isolate, UniProt Q70622); assay: NMR studies of zinc ejection from Zn(HIV1-F1); type: biochemical; settings: 2 mM NOBA
Description: The * and + symbols denote the aromatic proton signals of the zinc-coordinated and zinc-free His 9 residue. Upon completion of the reaction, reflected by complete ejection of zinc (t=90 min), 50% of the NOBA remained unreacted indicating a 1:1 reaction stoichiometry. NOBA (3-nitrosobenzamide), was synthesized described elsewhere in this application.
To determine if NOBA is capable of ejecting zinc from retroviral-type zinc fingers, NMR studies were performed on a peptide with amino acid sequence corresponding to the N-terminal CCHC zinc finger of the HIV-1 NC protein, Zn(HIV1-F1), South, et al., J. Am. Chem. Soc. 111:395-396 (1989), South, et al., Biochem Pharm. 40:123-129 (1990), Summers, et al., Biochemistry 29:329-340 (1990). NMR spectra of Zn(HIV-F1) were performed before and after the addition of NOBA (3-nitrosobenzamide). […] Chem Soc. 111:395-396 (1989), and three-dimensional structural studies have shown that the peptide adopts a structure that is essentially identical to the structure of the corresponding region in the intact NC protein, South, et al., Biochemistry 29:7786-7789 (1990). The down-field region of the ^1 H NMR spectrum showing the signals due to the aromatic proton of His 9 and Phe 2 is illustrated in FIG. 10 (bottom). […]

[2] = test system: human peripheral blood neutrophil leukocytes; assay: Superoxide generation by human neutrophils
H9 cells = assay: [3H]thymidine uptake, H9 cells; type: cell-based, human; settings: 10% FCS
calf thymus ADPRT = calf thymus ADPRT (Bos taurus, UniProt P18493); assay: ADPRT polymerase activity inhibition/inactivation (I50)
Sequence of calf thymus ADPRT (P18493 whole entry): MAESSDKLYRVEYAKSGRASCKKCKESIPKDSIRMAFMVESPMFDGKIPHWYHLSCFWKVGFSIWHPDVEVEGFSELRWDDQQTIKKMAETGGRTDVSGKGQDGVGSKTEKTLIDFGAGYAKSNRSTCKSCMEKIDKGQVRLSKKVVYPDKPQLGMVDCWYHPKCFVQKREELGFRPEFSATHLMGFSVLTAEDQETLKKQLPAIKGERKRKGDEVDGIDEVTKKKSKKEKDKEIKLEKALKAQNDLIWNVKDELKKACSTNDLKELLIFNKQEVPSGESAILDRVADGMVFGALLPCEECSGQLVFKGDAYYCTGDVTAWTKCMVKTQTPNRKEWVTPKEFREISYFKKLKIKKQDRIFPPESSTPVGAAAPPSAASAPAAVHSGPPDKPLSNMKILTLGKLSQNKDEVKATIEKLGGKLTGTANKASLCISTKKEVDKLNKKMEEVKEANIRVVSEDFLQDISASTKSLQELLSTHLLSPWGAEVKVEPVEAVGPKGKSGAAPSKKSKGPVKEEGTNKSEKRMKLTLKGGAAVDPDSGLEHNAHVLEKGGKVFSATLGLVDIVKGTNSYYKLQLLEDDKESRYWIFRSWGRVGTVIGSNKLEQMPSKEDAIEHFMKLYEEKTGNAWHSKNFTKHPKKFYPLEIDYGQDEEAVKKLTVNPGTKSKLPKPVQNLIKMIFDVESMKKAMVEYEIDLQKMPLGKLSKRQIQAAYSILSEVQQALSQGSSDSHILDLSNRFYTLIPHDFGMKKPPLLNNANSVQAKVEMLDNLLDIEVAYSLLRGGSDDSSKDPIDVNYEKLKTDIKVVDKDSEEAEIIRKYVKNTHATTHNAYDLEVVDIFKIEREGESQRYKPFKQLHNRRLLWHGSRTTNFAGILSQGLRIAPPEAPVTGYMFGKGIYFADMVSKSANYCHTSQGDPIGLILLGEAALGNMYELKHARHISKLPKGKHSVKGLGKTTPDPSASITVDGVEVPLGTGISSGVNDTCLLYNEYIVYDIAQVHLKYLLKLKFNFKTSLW
Description: The compounds of the subject invention were tested for their ability to inactivate the polymerase activity of adenosinediphosphoribosyl transferase (ADPRT). Assays were performed according to the method of Buki and Kun, Biochem. 27:5990-5995 (1988), using calf thymus ADPRT.
Assay conditions: ADPRT, 0.4 μg; coDNA, 4 μg; inhibitor diluted
between 0.8 and 600 μM, in 50 μl of 50 mM TrisHCl, 50 mM KCl, 5 mM
2mercaptoethanol, 0.5 mM EDTA, 0.1 mM NAD ([32Plabelled), pH 7.5.
Polymerization at 25° C. for 4 minutes.

HL-60 cells = assay: Colony formation (CFU) in semi-solid medium, HL-60; type: cell-based, human; settings: single cells in semi-solid medium
[3] = test system: normal cells (neutrophil leukocytes and bone marrow or peripheral blood stem cells); assay: Functions/viability of normal cells in absence or presence of compounds
Description: Experiments were performed in which the functions of various cancer cells (855-2 and HL-60 leukemia cells, D32, D37 and CRL 7712 glioblastoma cell lines, 186 medulla tumor cell line, L1210 murine leukemia cell line, MDA-468 human breast tumor cell line) and normal cells (neutrophil leukocytes and bone marrow or peripheral blood stream cells) were assessed in the absence or presence of the compounds.

855-2 cells = assay: [3H]thymidine uptake / growth, 855-2 cells; type: cell-based, human

Question: Which results are given for `NC(=O)c1cccc(N=O)c1` [NOBA, 3-nitrosobenzamide]?
Answer: anti-tumor and anti-HIV activity, in words (cells / HIV): highly active as anti-tumor and anti-HIV molecules; effectiveness after short exposure of cells (cells / HIV; exposure as short as 30 minutes): effective even after exposure of cells for a period as short as 30 minutes; Virus Titer (log ID50), 10 days (HIV-1): 1.05 log ID50; time of complete ejection of zinc from Zn(HIV1-F1) ([1]; 1 mM Zn(HIV1-F1), D2O, pH* 6.2, 30° C.): 90 min; NOBA remaining unreacted ([1]; 90 min): 50%; superoxide generation by human neutrophils (mean + S.D., n = 11) ([2]; 10 μM, 10^5 PMN + PMA (control 55.9 ± 7.7)): 44.4 ± 10.0 nmol O2^- /hr/10^5 cells; superoxide generation, in words ([2]; 10 μm): Only minor reductions in superoxide generation; inhibition of thymidine uptake, H9 (H9 cells; 250 μM): almost complete inhibition; inhibition at 10 µM (H9 cells; Homo sapiens, H9, 10 μM): ~75%; inhibition at 100 µM (H9 cells; Homo sapiens, H9, 100 μM): ~85%; pIC50 (calf thymus ADPRT): 4.82; colony formation, HL-60, in words (HL-60 cells): inhibit the ability of human leukemic cells (855-2 and HL-60) to form colonies; effect on normal stem cell colony formation (FIG. 5), in words ([3]; anti-leukemic doses, soft agar, rhesus bone marrow or human peripheral blood stem cells): minimal effect on normal cells; effect on viability of normal cells, in words ([3]; tumor cell inhibitory concentrations): not to affect adversely the viability of normal cells; growth arrest of 855-2 cells at increasing serum concentration (855-2 cells; 10 μM, increasing FCS): Growth arrest occurs irrespective of the concentration of FCS; relative potency, 855-2 (855-2 cells; 10% fetal bovine serum): potent inhibitory effects regardless of the source of growth factor activity
